# In article PMC5465257, “Evaluation of JNJ-54717793 a Novel Brain Penetrant Selective Orexin 1 Receptor Antagonist in Two Rat Models of Panic Attack Provocation” (Frontiers in Pharmacology, 2017):
# Where two headings read alike, the source gives them in different places.
# Key:
# [1] = target: T1, OX1R in rat brain (tenia tecta) (Rattus norvegicus, UniProt P56718); assay: Ex vivo OX1R receptor occupancy autoradiography in rat brain (tenia tecta), with plasma bioanalysis; settings: 10 mg/kg subcutaneous; for receptor occupancy at 10 mg/kg: sc
# T1 construct: Twenty micron thick tissue sections at the level of the tenia tecta were prepared for autoradiography; from tissue; host or cells: brain sections (tenia tecta) of male Sprague-Dawley rats
# T1 sequence (P56718 1-416): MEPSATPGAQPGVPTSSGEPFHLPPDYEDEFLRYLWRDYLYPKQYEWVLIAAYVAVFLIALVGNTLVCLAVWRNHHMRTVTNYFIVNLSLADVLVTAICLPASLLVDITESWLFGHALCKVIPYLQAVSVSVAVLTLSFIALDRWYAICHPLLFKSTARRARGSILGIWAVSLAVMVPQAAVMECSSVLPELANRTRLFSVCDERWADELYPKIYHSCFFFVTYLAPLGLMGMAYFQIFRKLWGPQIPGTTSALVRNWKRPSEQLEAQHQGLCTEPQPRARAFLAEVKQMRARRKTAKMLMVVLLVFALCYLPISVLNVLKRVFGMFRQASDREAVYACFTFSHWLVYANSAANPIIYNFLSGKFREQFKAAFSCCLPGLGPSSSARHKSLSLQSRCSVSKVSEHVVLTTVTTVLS
# human OX1R [2] = target: T2, human OX1R (Homo sapiens, UniProt O43613); assay: Human OX1R competitive radioligand binding ([3H]SB-674042); parameters: expressed in transfected cells; host or cells: clonal CHO-K1 cells
# T2 sequence (O43613 1-425): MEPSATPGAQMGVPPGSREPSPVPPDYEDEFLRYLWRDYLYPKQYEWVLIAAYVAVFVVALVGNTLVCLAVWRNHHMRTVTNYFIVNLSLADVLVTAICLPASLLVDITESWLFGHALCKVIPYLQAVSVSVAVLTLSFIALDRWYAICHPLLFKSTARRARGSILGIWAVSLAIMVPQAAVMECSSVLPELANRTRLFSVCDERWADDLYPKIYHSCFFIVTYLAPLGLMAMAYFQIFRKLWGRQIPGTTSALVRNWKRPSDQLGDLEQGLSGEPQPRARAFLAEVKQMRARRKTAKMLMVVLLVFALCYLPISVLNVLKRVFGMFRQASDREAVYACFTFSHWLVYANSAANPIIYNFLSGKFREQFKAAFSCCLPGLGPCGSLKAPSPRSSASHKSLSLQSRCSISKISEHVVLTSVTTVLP
# Method: (§1) Human or rat OX1R binding was measured in competitive radioligand binding assays using [^3H]SB-674042 (1-(5-(2-fluoro-phenyl)-2-methyl-thiazol-4-yl)-1-((S)-2-(5-phenyl-(1,3,4)oxadiazol-2-ylmethyl)-pyrrolidin-l-yl)-methanone) as a tracer (4 nM, specific activity 35 Ci/mmol) as previously described ([Langmead et al., 2004]). Cell membranes were prepared from clonal CHO K1 cells transfected with the human OX1R or clonal HEK-293 cells transfected with the rat OX1R. Dilutions of test compounds were made in Dulbecco’s PBS from 10 mM stocks dissolved in dimethyl sulfoxide. After a 60 min incubation at room temperature, binding reactions were filtered. The membranes were counted in a scintillation counter. Non-specific binding was determined in the presence of 10 μM almorexant. Affinities of compounds for the human OX2R were measured by competitive radioligand binding using tritiated N-ethyl-2-[(6-methoxy-pyridin-3-yl)-(toluene-2-sulfonyl)-amino]-N-pyridin-3-ylmethyl-acetamide (EMPA) (2 nM, specific activity 27 Ci/mmol) ([Malherbe et al., 2009]). Cell membranes were prepared from a stable pool of HEK-293 cells transfected with the human OX2R. Non-specific binding was determined with 10 μM almorexant.
# (§2) The Ki of the test compounds was calculated based on non-linear regression (one site competition) using Graphpad Prism. […]
# human OX1R [3] = target: T2, human OX1R; assay: Calcium mobilization functional assay, CHO-K1 cells, OX-A EC80
# Method: (§3) Stably transfected CHO-K1 cells for the human OX1R or HEK-293 cells for the rat OX1R were used for the in vitro functional assays. […] Since the intracellular calcium response is transient and not consistent with equilibrium assumptions, the assays were performed by giving a standard, EC80 dose of the OX agonist and calculating a pKB from inhibition of the agonist response by a dose range of the antagonists. The cells were plated in black 96 well tissue culture plates with clear bottoms at 50,000 cells/well and grown overnight at 37°C in 5% carbon dioxide (CO2). […] The cell plate was then transferred to the Molecular Devices Fluorometric Imaging Plate Reader (FLIPR) Tetra instrument, which adds the OX agonist and monitors changes in fluorescence which reflect intracellular calcium levels.
# (§4) Results were calculated using GraphPad Prism (San Diego, CA, United States) software. Raw data from the FLIPR Tetra was exported as the difference between maximum and minimum fluorescence observed for each well. A non-linear regression was used to determine the agonist EC50 and antagonist IC50 for each plate, then the antagonist KB was calculated according to Cheng and Prusoff ([Cheng and Prusoff, 1973]).
# rat OX1R [4] = target: T3, rat OX1R (Rattus norvegicus, UniProt P56718); assay: Calcium mobilization functional assay, HEK-293 cells, OX-A EC80
# T3 sequence (P56718 1-416): T1 sequence (P56718 1-416)
# Method: as §3, §4
# rat OX1R [5] = target: T3, rat OX1R; assay: Rat OX1R competitive radioligand binding ([3H]SB-674042); parameters: expressed in transfected cells; host or cells: clonal HEK-293 cells
# Method: as §1, §2
# wild-type mice = assay: Sleep recording (EEG/EMG) in wild-type mice; assay type: in vivo, mouse
# Method: Sleep experiments were conducted in male Sprague-Dawley rats (350–450 g, Harlan Laboratories, Livermore, CA, United States) and in male C57Bl6 OX2R knockout (KO) and corresponding wild-type mice (30–35 g, Charles River Laboratories, San Diego, CA, United States) as described previously ([Dugovic et al., 2009]). Animals were chronically implanted with telemetric devices (Data Sciences International, St. Paul, MN, United States) for the recording of electroencephalogram (EEG) and electromyogram (EMG) signals. Polysomnographic waveforms were analyzed per 10-s epoch and classified as wake, non-rapid eye movement (NREM) or REM sleep by using the computer software program SleepSign (Kissei Comtec, Nagano, Japan). For each experiment, EEG and EMG signals were recorded for up to 6 h after administration of the tested compounds. Analysis of sleep parameters included latency to NREM sleep (defined as the time interval to the first six consecutive NREM epochs) and REM sleep (the first two consecutive REM epochs post-treatment), and the duration of NREM and REM.
# Results were averaged and expressed as mean ± SEM in defined time intervals. To determine whether differences were significant at a given interval, either paired Student’s t-test or two-way analysis of variance (ANOVA) (interaction time × treatment), repeated measures followed by Bonferroni post hoc test was performed.
# In the present study, the in vivo functional target engagement was investigated in a model of permanent inhibition of OX2R, and the effects of JNJ-5471773 on sleep-wake states were examined in mice lacking the OX2R relative to their corresponding wild-type mice. […] NREM sleep latency and duration were not affected in both genotypes (not shown).
smiles,measurement,setting,value
"O=C(c1cccc(F)c1-c1ncccn1)N1[C@@H]2CC[C@H]1[C@H](Nc1cnc(C(F)(F)F)cn1)C2 [JNJ-54717793, (1S,2R,4R)-7-([(3-fluoro-2-pyrimidin-2-ylphenyl)carbonyl]-N-[5-(trifluoromethyl)pyrazin-2-yl]-7-azabicyclo[2.2.1]heptan-2-amine)]",plasma concentration for maximal receptor occupancy,[1],2211 ± 339 ng/mL
same,receptor occupancy at 10 mg/kg,"[1]; 2 h time point, read-out: OX1R occupancy",65%
same,receptor occupancy at 10 mg/kg,"[1]; observed at 30 min, read-out: maximal OX1R occupancy",83 ± 7%
same,Ki,human OX1R [2],14.8 nM
same,binding selectivity at the human OX1R compared to the human OX2R,human OX1R [2]; hOX1R versus hOX2R,50 fold
same,Kb,human OX1R [3],16.6 nM
same,Kb,rat OX1R [4],35.5 nM
same,Ki,rat OX1R [5],14.5 nM
same,REM sleep duration,wild-type mice; 30 mg/kg oral,did not alter
same,REM sleep latency,wild-type mice; 30 mg/kg oral,slightly reduced
same,NREM sleep latency and duration,wild-type mice; 30 mg/kg oral (not shown),not affected
